In patent US8962627B2, “Oxime derivatives and their use as allosteric modulators of metabotropic glutamate receptors” (Prestwick Chemical, Inc., priority 2009, dated 2015):
Structures can show the parent of a compound that is named as a salt.

Test system: not given
Test: not given
Conditions: not given

SMILES | melting point
Cl.ON=c1cc(-c2cc3cccn3cn2)oc2ccc(OCCNC3CCCC3)cc12 | > 230 °C (dec.)
Cl.NCCOc1ccc2oc(-c3cc4cccn4cn3)cc(=NO)c2c1 | > 270 °C (dec.)
Cl.ON=c1cc(-c2cc3sccc3cn2)oc2ccc(OCCN3CCCOCC3)cc12 | 223 to 226 °C
Cl.ON=c1cc(-c2cc3sccc3cn2)oc2ccc(OCCN3CCc4ccccc4C3)cc12 | 234 to 237 °C
Cl.O=S1(=O)CCN(CCOc2ccc3oc(-c4cc5sccc5cn4)cc(=NO)c3c2)CC1 | 195 to 197 °C
CN(C)CCCOc1ccc2oc(-c3cc4cccn4cn3)cc(=NO)c2c1.Cl | > 270 °C (dec.)
CN(C)CCOc1ccc2oc(-c3cc4cccn4cn3)cc(=NO)c2c1.Cl | > 275 °C (dec.)
ON=c1cc(-c2cc3cccn3cn2)oc2ccc(OCCc3ccc(F)cc3)cc12 (as salt: hydrochloride) [Example 109, 6-[2-(4-fluoro-phenyl)-ethoxy]-2-pyrrolo[1,2-c]pyrimidin-3-yl-chromen-4-one oxime, hydrochloride] | 234 to 236 °C
ON=c1cc(-c2cc3sccc3cn2)oc2ccc(OCCc3ccc(F)cc3)cc12 (as salt: hydrochloride) [Example 130, 6-[2-(4-Fluoro-phenyl)-ethoxy]-2-thieno[3,2-c]pyridin-6-yl-chromen-4-one oxime] | 228 to 234 °C
ON=c1cc(-c2cc3cccn3cn2)oc2ccc(OCCn3ccnc3)cc12 (as salt: sodium) [Example 105, 6-(2-imidazol-1-O-ethoxy)-2-pyrrolo[1,2-c]pyrimidin-3-yl-chromen-4-one oxime] | > 250 °C (dec.)
Cc1cc2c(=NO)cc(-c3cc4ccccc4cn3)oc2cc1Br [Example 3, 7-bromo-2-isoquinolin-3-yl-6-methyl-chromen-4-one oxime] | 267 to 270 °C
ON=c1cc(-c2cc3ccccc3cn2)oc2c(F)cc(F)cc12 [Example 7, 6,8-difluoro-2-isoquinolin-3-yl-chromen-4-one oxime] | 253 to 256 °C
ON=c1cc(-c2cc3ccccc3cn2)oc2c(Cl)cccc12 [Example 8, 8-chloro-2-isoquinolin-3-yl-chromen-4-one oxime] | 270 to 272 °C
ON=c1cc(-c2cc3ccccc3cn2)oc2cccc(F)c12 [Example 9] | 275 to 278 °C
ON=c1cc(-c2cc3ccc(F)cc3cn2)oc2ccccc12 [Example 12, 2-(7-fluoro-isoquinolin-3-yl)-chromen-4-one oxime] | 233 to 235 °C
COc1ccc2cc(-c3cc(=NO)c4ccccc4o3)ncc2c1 [Example 13, 2-(7-methoxy-isoquinolin-3-yl)-chromen-4-one oxime] | 239 to 241 °C
COc1cc2cnc(-c3cc(=NO)c4ccccc4o3)cc2cc1OC [Example 14, 2-(6,7-dimethoxy-isoquinolin-3-yl)-chromen-4-one oxime] | 266 to 269 °C
ON=c1cc(-c2cc3ccc(Cl)cc3cn2)oc2ccccc12 [Example 16, 2-(7-chloro-isoquinolin-3-yl)-chromen-4-one oxime] | 260 to 261 °C
ON=c1cc(-c2cc3c(Br)cccc3cn2)oc2ccccc12 [Example 17, 2-(5-bromo-isoquinolin-3-yl)-chromen-4-one oxime] | 268 to 270 °C

SMILES | melting point
COc1cccc2cnc(-c3cc(=NO)c4ccccc4o3)cc12 [Example 19, 2-(5-methoxy-isoquinolin-3-yl)-chromen-4-one oxime] | 245 to 247 °C
Cc1cc2c(=NO)cc(-c3cc4ccccc4cn3)oc2cc1C#Cc1ccccc1 [Example 25] | 248 to 250 °C
CN(C)c1ccc(C#Cc2ccc3c(=NO)cc(-c4cc5ccccc5cn4)oc3c2)cc1 [Example 27, 7-(4-dimethylaminophenyl)ethynyl-2-isoquinolin-3-yl-chromen-4-one oxime] | 235 to 240 °C
Nc1cccc(C#Cc2ccc3c(=NO)cc(-c4cc5ccccc5cn4)oc3c2)c1 [Example 29, 7-(3-aminophenyl)ethynyl-2-isoquinolin-3-yl-chromen-4-one oxime] | 272 to 275 °C
ON=c1cc(-c2cc3ccccc3cn2)oc2cc(C#Cc3ccccc3Cl)ccc12 [Example 32, 7-(2-chlorophenyl)ethynyl-2-isoquinolin-3-yl-chromen-4-one oxime] | 292 to 297 °C
N#Cc1ccc2oc(-c3cc4ccccc4cn3)cc(=NO)c2c1 [Example 38, 6-cyano-2-isoquinolin-3-yl-chromen-4-one oxime] | 280 °C (dec.)
CN1CCN(CCCNc2ccc3oc(-c4cc5ccccc5cn4)cc(=NO)c3c2)CC1 [Example 45, 2-isoquinolin-3-yl-6-[3-(4-methyl-piperazin-1-yl)-propylamino]-chromen-4-one oxime] | 208 to 211 °C
CN1CCN(CCOc2ccc3oc(-c4cc5ccccc5cn4)cc(=NO)c3c2)CC1 [Example 46, 2-isoquinolin-3-yl-6-[2-(4-methyl-piperazin-1-yl)-ethoxy]-chromen-4-one oxime] | 233 to 236 °C
ON=c1cc(-c2cc3ccccc3cn2)oc2cc(-c3ccccc3)ccc12 [Example 47, 2-isoquinolin-3-yl-7-phenyl-chromen-4-one oxime] | 275 to 278 °C
ON=c1cc(-c2cc3ccccc3cn2)oc2cc(-c3ccc(-c4ccccc4)cc3)ccc12 [Example 48, 7-(4-biphenyl)-2-isoquinolin-3-yl-chromen-4-one oxime] | 283 to 285 °C
CN1CCN(CCCNc2ccc3c(=NO)cc(-c4cc5ccccc5cn4)oc3c2)CC1 [Example 49, 2-isoquinolin-3-yl-7-[3-(4-methyl-piperazin-1-yl)-propylamino]-chromen-4-one oxime] | 228 to 233 °C
ON=c1cc(-c2cc3ccc(O)cc3cn2)oc2ccccc12 [Example 60, 2-(7-hydroxy-isoquinolin-3-yl)-chromen-4-one oxime] | 248 to 250 °C
Cc1cc(C)n2cnc(-c3cc(=NO)c4ccccc4o3)cc12 [Example 64, 2-(5,7-dimethyl-Pyrrolo[1,2-c]pyrimidin-3-yl)-chromen-4-one oxime] | > 250 °C (dec.)
ON=c1cc(-c2cc3c(cn2)ncn3Cc2ccccc2)oc2ccccc12 [Example 68, 2-(1-Benzyl-1H-imidazo[4,5-c]pyridin-6-yl)-chromen-4-one oxime] | 148 to 150 °C
O=c1[nH]c(-c2c/c(=N\O)c3ccccc3o2)cc2ccccc12 [Example 72, 3-{4-[(E)-Hydroxyimino]-4H-chromen-2-yl}-2H-isoquinolin-1-one] | 310 to 315 °C (dec.)
ON=c1cc(-c2cc3cc[nH]c3cn2)oc2ccccc12 [Example 75, 2-(1H-Pyrrolo[2,3-c]pyridin-5-yl)-chromen-4-one oxime] | 270 to 275 °C (dec.)
ON=c1cc(-c2ncc3ccccc3n2)oc2ccccc12 [Example 110, 2-quinazolin-2-yl-chromen-4-one oxime] | 239 to 241 °C
CCN1CCN(CCOc2ccc3oc(-c4cc5cccn5cn4)cc(=NO)c3c2)CC1.Cl.Cl [Example 121] | > 240 °C (dec.)

Molecular target: T1, human mGluR4 transiently over-expressed in HEK-293 cells (Homo sapiens, UniProt Q14833)
T1 construct: expressed in transfected cells; host or cells: HEK-293 cells, transient co-transfection by electroporation
T1 sequence (Q14833 33-912): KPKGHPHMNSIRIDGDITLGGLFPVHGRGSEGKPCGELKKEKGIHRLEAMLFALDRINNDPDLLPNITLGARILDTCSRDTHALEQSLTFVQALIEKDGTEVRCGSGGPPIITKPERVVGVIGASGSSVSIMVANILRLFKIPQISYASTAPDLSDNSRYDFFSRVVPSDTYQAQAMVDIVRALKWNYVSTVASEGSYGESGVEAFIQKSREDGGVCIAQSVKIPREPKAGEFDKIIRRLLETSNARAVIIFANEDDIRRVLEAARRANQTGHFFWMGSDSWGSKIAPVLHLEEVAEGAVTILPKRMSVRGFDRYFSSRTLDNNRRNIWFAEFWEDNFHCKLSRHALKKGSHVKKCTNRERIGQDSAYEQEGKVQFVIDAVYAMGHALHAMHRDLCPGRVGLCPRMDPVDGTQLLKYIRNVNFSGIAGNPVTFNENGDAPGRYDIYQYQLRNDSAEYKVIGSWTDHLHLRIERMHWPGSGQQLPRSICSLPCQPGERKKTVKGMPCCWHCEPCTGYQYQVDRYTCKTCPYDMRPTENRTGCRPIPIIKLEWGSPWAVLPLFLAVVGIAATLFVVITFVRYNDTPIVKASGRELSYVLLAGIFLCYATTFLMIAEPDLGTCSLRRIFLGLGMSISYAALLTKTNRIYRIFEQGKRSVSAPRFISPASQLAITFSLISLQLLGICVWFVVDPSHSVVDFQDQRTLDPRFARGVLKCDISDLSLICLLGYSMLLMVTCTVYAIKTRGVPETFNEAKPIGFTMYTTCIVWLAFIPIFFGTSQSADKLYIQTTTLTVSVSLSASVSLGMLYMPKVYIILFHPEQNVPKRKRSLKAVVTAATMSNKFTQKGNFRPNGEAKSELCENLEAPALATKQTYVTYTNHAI
Test: Human mGluR4 positive allosteric modulator evaluation using Ca++ functional assay
Assay type: cell-based
Conditions: HEK-293 cells co-transfected with hmGluR4 and chimeric G protein; EC10 glutamate; intracellular calcium (Fluo4AM); read-out: mean EC50 of agonist/positive allosteric modulator activity on mGluR4
Procedure: Human mGluR4 Positive Allosteric Modulator Evaluation Using Ca^++ Functional Assay
Compounds of the present invention were tested successively for their agonist and positive allosteric modulator activities on human mGluR4 transiently over-expressed in HEK-293 cells. They exert agonist activity if, by themselves in absence of the endogenous glutamate, they are able to activate mGluR4; and they exert positive allosteric modulator activity if they increase the action of the endogenous glutamate.
Cell Culture and Transfection
HEK-293 cells were maintained in Modified Eagle's Medium supplemented with 10% Foetal Calf Serum, 1% Penicillin/Streptomycin and 1% non essential amino acids at 37° C./5% CO2.
Cells were co-transfected by electroporation with two DNA plasmids encoding hmGluR4 and a chimeric G protein allowing redirection of the activation signal to intracellular calcium pathway. Cells were plated after transfection onto polyornithine coated, clear bottom, black-walled, 96-well plates and cultured for 24 h.
Calcium Assay EC50 Determination
Receptor activity was detected by changes in intracellular calcium measured using the fluorescent Ca^2+ sensitive dye, Fluo4AM (Molecular Probes).
The day of the assay, medium was aspirated and replaced during 3 hours by medium without serum supplemented with 1% Glutamax, 1% Penicillin/Streptomycin and 1% non essential amino acids. Then, cells were washed with freshly prepared buffer B (HBSS 1×(PAA), Hepes 20 mM, MgSO4-7H2O 1 mM, Na2CO3 3.3 mM, CaCl2-2H2O 1.3 mM, 0.5% BSA, Probenecid 2.5 mM) and loaded at 37° C. in 5% CO2 for 1.5 hours with buffer B containing 1 μM Fluo4AM 0.1 mg/mL Pluronic Acid, 7 μg/mL Glutamate Pyruvate Transaminase and 2 mM sodium pyruvate. Afterwards cells were washed twice with buffer B and 50 μL of this buffer were added to each well. Addition of compounds and intracellular Ca^2+ measurements (excitation 485 nm, emission 525 nm) were performed by the fluorescence microplate reader FlexStation (Molecular Devices).
Agonist and positive allosteric modulator activities of compounds were consecutively evaluated on the same cells plate. Agonist activity was first tested during 60 s with the addition of compound alone on the cells. Then, the cells were stimulated by an EC10 glutamate concentration and fluorescence recorded for additional 60 s. EC10 glutamate concentration is the concentration giving 10% of the maximal glutamate response. Agonist and/or positive allosteric modulator activity(ies) were evaluated in comparison to basal signal evoked by EC10 glutamate alone.
For EC50 determination, a dose-response test was performed using 6 to 9 concentrations of each compound of the invention. Dose-response curves were fitted using the sigmoidal dose-response (variable slope) analysis in GraphPad Prism program (Graph Pad Inc) and EC50 of agonist/positive allosteric modulator activity was calculated. Dose-response experiments were all performed in duplicate, two times independently.

SMILES | EC50 [nM]
ON=c1cc(-c2cc3ccccc3cn2)oc2cc(C#Cc3ccccc3)ccc12 (mixture of isomers) [Example 20, 2-isoquinolin-3-yl-7-phenylethynyl-chromen-4-one oxime] | < 1000
ON=c1cc(-c2cc3ccccc3cn2)oc2cc(CCc3ccccc3)ccc12 (mixture of isomers) [Example 22, 2-isoquinolin-3-yl-7-phenethyl-chromen-4-one oxime] | < 5000
C#Cc1ccc2c(=NO)cc(-c3cc4ccccc4cn3)oc2c1 (mixture of isomers) [Example 23, 7-ethynyl-2-isoquinolin-3-yl-chromen-4-one oxime] | < 1000
COc1ccc(C#Cc2ccc3c(=NO)cc(-c4cc5ccccc5cn4)oc3c2)cc1 (mixture of isomers) [Example 31, 2-isoquinolin-3-yl-7-(4-methoxyphenyl)ethynyl-chromen-4-one oxime] | < 5000
